Experimental findings from ChEMBL document CHEMBL1159306, “Juncenolide A, a new briarane from the Taiwanese Gorgonian Junceella juncea” (J Nat Prod, 2002) are described below.

As usually defined, the IC50 is the concentration that inhibits the measured activity by half. Low values mean higher potency, high ones lower potency.

Each structure is given as a SMILES string. In brackets after ≈: the same amount, converted by molar mass.

Experiment [1] can be described thus: Cytotoxicity against human DLD cells. It is filed as functional, cell-based.
A short description of experiment [2]: Cytotoxicity against human KB16 cells. It is filed as functional, cell-based.

On to `C=C1CC[C@H](OC(=O)C(C)C)[C@@]2(C)[C@@H](OC(C)=O)CC[C@@]3(CO3)[C@@H]2[C@H](OC(C)=O)[C@]2(O)[C@@H](C)C(=O)O[C@H]2[C@H]1Cl` [JUNCENOLIDE A], for which the half-inhibitory concentration (IC50) turned out to be 3.4 µg/mL (≈ 5.95 µM) in experiment [1] and 5.9 µg/mL (≈ 10.3 µM) in experiment [2].
